4 sequences from PMC7857580, “Substitutional landscape of a split fluorescent protein fragment using high-density peptide microarrays” (PLoS ONE, 2021) can be followed below.

Ends that are not written are not given here.

Sequence of LOO10-GFP (P42212 whole entry S30R/Y39N/F64L/S65T/F99S/N105T/Y145F/M153T/V163A/I171V, form open): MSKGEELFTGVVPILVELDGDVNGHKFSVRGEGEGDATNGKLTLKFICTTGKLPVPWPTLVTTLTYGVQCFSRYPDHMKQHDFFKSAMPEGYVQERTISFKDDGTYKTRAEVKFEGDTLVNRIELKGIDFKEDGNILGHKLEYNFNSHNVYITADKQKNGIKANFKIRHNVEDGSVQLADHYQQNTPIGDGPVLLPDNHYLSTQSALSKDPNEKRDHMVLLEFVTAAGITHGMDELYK

This assay concerns the target LOO10-GFP (Aequorea victoria, UniProt P42212, S30R/Y39N/F64L/S65T/F99S/N105T/Y145F/M153T/V163A/I171V, form not given). It is filed as binding. The following applies: read-out: Kd (dissociation constant between s10 peptide and LOO10-GFP); 50 nM LOO10-GFP, 0-2500 nM peptide, assay buffer pH 8, overnight 4°C, read at 25°C; 390ex/506em (WT, H199Y) or 495ex/520em (T203Y, H199Y/T203Y); quadratic fit; 3 independent measurements. The procedure:
Fluorescence of each sample was measured at 390/506 nm for T203 variants and at 495/520 nm for Y203 variants, at 25°C, excitation slit 12 nm, emission slit 20 nm and 10s integration time. The affinity experiments were performed in 3 independent replicas for each peptide variant. […] All fits were performed in OriginPro 2017.
Turning to NHYLSTQTVLS [WT], the Kd is 280 ± 83 nM. The result for NHYLSYQTVLS [T203Y] reads 152 ± 47 nM. The figure for NYYLSTQTVLS [H199Y] is 53.4 ± 0.4 nM. For NYYLSYQTVLS [H199Y/T203Y], the Kd amounted to 32.6 ± 6.3 nM.
